Results from ChEMBL document CHEMBL5241112, “Insights into the recent progress in the medicinal chemistry of pyranopyrimidine analogs” (RSC Med Chem, 2022).
Converted amounts (≈) assume the structure as drawn.

What was measured:
Staphylococcus aureus [1] = assay: Antimicrobial activity against Staphylococcus aureus assessed as diameter of inhibition zone at 1 mg/ml incubated for 48 hrs by agar disk diffusion method; format: functional; conditions: read-out: DIZ
Aspergillus niger [2] = assay: Antifungal activity against Aspergillus niger assessed as diameter of inhibition zone at 1 mg/ml incubated for 72 to 91 hrs by agar disk diffusion method; format: functional; conditions: time 72-91 hrs, read-out: DIZ
Pseudomonas aeruginosa [3] = assay: Antimicrobial activity against Pseudomonas aeruginosa assessed as diameter of inhibition zone at 1 mg/ml incubated for 48 hrs by agar disk diffusion method; format: functional; conditions: read-out: DIZ
Penicillium chrysogenum [4] = assay: Antifungal activity against Penicillium chrysogenum assessed as diameter of inhibition zone at 1 mg/ml incubated for 72 to 91 hrs by agar disk diffusion method; format: functional; conditions: time 72-91 hrs, read-out: DIZ
Klebsiella pneumoniae [5] = assay: Antimicrobial activity against Klebsiella pneumoniae assessed as diameter of inhibition zone at 1 mg/ml incubated for 48 hrs by agar disk diffusion method; format: functional; conditions: read-out: DIZ
Bacillus cereus = assay: Antimicrobial activity against Bacillus cereus assessed as diameter of inhibition zone at 1 mg/ml incubated for 48 hrs by agar disk diffusion method; format: functional; conditions: read-out: DIZ
Escherichia coli [6] = assay: Antimicrobial activity against Escherichia coli assessed as diameter of inhibition zone at 1 mg/ml incubated for 48 hrs by agar disk diffusion method; format: functional; conditions: read-out: DIZ
Penicillium chrysogenum [7] = assay: Antifungal activity against Penicillium chrysogenum AUCC-530 assessed as diameter of inhibition zone incubated for 24 hrs by disc diffusion method; format: functional
Aspergillus ochraceus [8] = assay: Antifungal activity against Aspergillus ochraceus AUCC-230 assessed as diameter of inhibition zone incubated for 24 hrs by disc diffusion method; format: functional
Aspergillus ochraceus [9] = assay: Antifungal activity against Aspergillus ochraceus assessed as diameter of inhibition zone by disc diffusion method; format: functional
Penicillium chrysogenum [10] = assay: Antifungal activity against Penicillium chrysogenum assessed as diameter of inhibition zone by disc diffusion method; format: functional
[11] = biological target: Hydroxycarboxylic acid receptor 2 (Homo sapiens, UniProt Q8TDS4); assay: Agonist activity at human HCA2 expressed in human Flp-In-293 cells assessed as inhibition of forskolin-stimulated cAMP accumulation incubated for 30 mins by Lance cAMP assay; format: cell-based
Sequence of Hydroxycarboxylic acid receptor 2 (Q8TDS4 whole entry): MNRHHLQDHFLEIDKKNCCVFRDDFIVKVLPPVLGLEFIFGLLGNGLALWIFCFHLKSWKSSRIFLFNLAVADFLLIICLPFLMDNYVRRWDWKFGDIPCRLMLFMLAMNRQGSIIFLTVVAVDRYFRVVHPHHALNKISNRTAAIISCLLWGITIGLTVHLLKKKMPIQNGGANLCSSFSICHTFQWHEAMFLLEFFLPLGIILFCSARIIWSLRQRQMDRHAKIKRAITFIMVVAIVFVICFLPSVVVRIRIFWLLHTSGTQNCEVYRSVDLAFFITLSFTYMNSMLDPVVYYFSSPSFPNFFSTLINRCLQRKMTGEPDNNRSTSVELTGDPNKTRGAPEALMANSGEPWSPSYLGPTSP

Klebsiella pneumoniae [12] = assay: Antibacterial activity against Klebsiella pneumoniae assessed as bacterial growth inhibition by broth microdilution method; format: functional
Staphylococcus aureus [13] = assay: Antibacterial activity against Staphylococcus aureus assessed as bacterial growth inhibition by broth microdilution method; format: functional
Escherichia coli [14] = assay: Antibacterial activity against Escherichia coli assessed as bacterial growth inhibition by broth microdilution method; format: functional
Pseudomonas aeruginosa [15] = assay: Antibacterial activity against Pseudomonas aeruginosa assessed as bacterial growth inhibition by broth microdilution method; format: functional
Aspergillus flavus [16] = assay: Antifungal activity against Aspergillus flavus assessed as fungal growth inhibition by broth microdilution method; format: functional
Candida albicans [17] = assay: Antifungal activity against Candida albicans assessed as fungal growth inhibition by broth microdilution method; format: functional
Staphylococcus aureus [18] = assay: Antibacterial activity against Staphylococcus aureus MLS-16 MTCC 2940 assessed as bacterial growth inhibition incubated for 24 hrs by broth microdilution method; format: functional
[19] = biological target: T1, Free fatty acid receptor 3 (Homo sapiens, UniProt O14843); assay: Agonist activity at FFA3 (unknown origin) expressed in human Flp-In-293 cells assessed as inhibition of forskolin-stimulated cAMP accumulation incubated for 30 mins by Lance cAMP assay; format: cell-based
T1 sequence (O14843 whole entry): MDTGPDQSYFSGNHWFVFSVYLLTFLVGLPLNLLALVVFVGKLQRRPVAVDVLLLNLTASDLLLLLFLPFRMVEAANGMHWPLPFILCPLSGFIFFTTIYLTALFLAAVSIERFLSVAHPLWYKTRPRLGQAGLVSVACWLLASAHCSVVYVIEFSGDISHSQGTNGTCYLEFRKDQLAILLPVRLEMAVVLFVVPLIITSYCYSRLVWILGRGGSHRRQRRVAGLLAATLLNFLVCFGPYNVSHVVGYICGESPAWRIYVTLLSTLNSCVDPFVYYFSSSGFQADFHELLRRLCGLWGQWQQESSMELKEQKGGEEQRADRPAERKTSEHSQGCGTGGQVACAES

Staphylococcus aureus [20] = assay: Antibacterial activity against Staphylococcus aureus MTCC 96 assessed as bacterial growth inhibition incubated for 24 hrs by broth microdilution method; format: functional
Plasmodium falciparum = assay: microbe, parasite or virus in culture
Aspergillus flavus [21] = assay: Antifungal activity against Aspergillus flavus assessed as inhibition of fungal growth; format: functional
Aspergillus niger [22] = assay: Antifungal activity against Aspergillus niger assessed as inhibition of fungal growth; format: functional
Candida albicans [23] = assay: Antifungal activity against Candida albicans assessed as inhibition of fungal growth; format: functional
A549 = assay: Anticancer activity against human A549 cells assessed as reduction in cell viability incubated for 24 hrs by MTT assay; format: functional, cell-based; conditions: A549, 24 h

For `COC(=O)C1=C(N)Oc2[nH]c(=S)[nH]c(=O)c2C1c1ccc(O)cc1` (stereo not drawn), the zone of inhibition at 1000 µg/mL (Staphylococcus aureus [1]) was 21 mm, the zone of inhibition at 1000 µg/mL (Aspergillus niger [2]) was 23 mm and the zone of inhibition at 1000 µg/mL (Pseudomonas aeruginosa [3]) was 18 mm. For the same molecule, the zone of inhibition at 1000 µg/mL (Penicillium chrysogenum [4]) was 23 mm, the zone of inhibition at 1000 µg/mL (Klebsiella pneumoniae [5]) was 22 mm and the zone of inhibition at 1000 µg/mL (Bacillus cereus) was 18 mm. For the same molecule, the zone of inhibition at 1000 µg/mL (Escherichia coli [6]) was 21 mm.

NYSTATIN showed an inhibition zone (IZ) (Penicillium chrysogenum [7]) of 24 mm, an inhibition zone (IZ) (Aspergillus ochraceus [8]) of 22 mm and an inhibition zone (IZ) (Aspergillus ochraceus [9]) of 22 mm. The inhibition zone (IZ) (Penicillium chrysogenum [10]) was 24 mm.

`O=c1[nH]c(=O)c2c(CCCCCl)cc(=O)oc2[nH]1` showed an EC50 [11] of 51 nM.

With `CCO/C=N/C1=C(C#N)C(c2ccccc2F)c2c(n(C)c(=O)n(C)c2=O)O1` (stereo not drawn) the MIC (Klebsiella pneumoniae [12]) was 6.25 µg/mL (≈ 16.3 µM), the MIC (Staphylococcus aureus [13]) was 6.25 µg/mL (≈ 16.3 µM) and the MIC (Escherichia coli [14]) was 6.25 µg/mL (≈ 16.3 µM). The MIC (Pseudomonas aeruginosa [15]) was 6.25 µg/mL (≈ 16.3 µM), the MIC (Aspergillus flavus [16]) was 6.25 µg/mL (≈ 16.3 µM) and the MIC (Candida albicans [17]) was 6.25 µg/mL (≈ 16.3 µM).

For `Cc1cc2c(c(=O)o1)C(c1ccccc1)c1c(Nc3ccccc3)ncnc1O2` (stereo not drawn), the MIC (Staphylococcus aureus [18]) was 15.6 µg/mL (≈ 40.7 µM).

`CCCCc1cc(=O)oc2[nH]c(=S)[nH]c(=O)c12` was tested, and the EC50 [11] was 51 nM and the EC50 [19] was 220 nM.

Molecule `COC(=O)C1=C(N)Oc2[nH]c(=S)[nH]c(=O)c2C1c1ccc(Cl)cc1` (stereo not drawn) has a zone of inhibition at 1000 µg/mL (Pseudomonas aeruginosa [3]) of 13 mm, a zone of inhibition at 1000 µg/mL (Penicillium chrysogenum [4]) of 0 mm and a zone of inhibition at 1000 µg/mL (Klebsiella pneumoniae [5]) of 3 mm. It also gave a zone of inhibition at 1000 µg/mL (Bacillus cereus) of 10 mm and a zone of inhibition at 1000 µg/mL (Escherichia coli [6]) of 7 mm.

In the case of `Cc1cc2c(c(=O)o1)C(c1ccc(F)cc1)c1c(Nc3ccccc3)ncnc1O2` (stereo not drawn), the MIC (Staphylococcus aureus [20]) is reported as 7.8 µg/mL (≈ 19.4 µM).

Work on `CCO/C=N/C1=C(C#N)C(c2cccc(OC)c2OC)c2c(n(C)c(=O)n(C)c2=O)O1` (stereo not drawn) yielded an MIC (Klebsiella pneumoniae [12]) of 6.25 µg/mL (≈ 14.7 µM), an MIC (Staphylococcus aureus [13]) of 6.25 µg/mL (≈ 14.7 µM) and an MIC (Escherichia coli [14]) of 6.25 µg/mL (≈ 14.7 µM). The MIC (Pseudomonas aeruginosa [15]) was 6.25 µg/mL (≈ 14.7 µM), the MIC (Aspergillus flavus [16]) was 3.12 µg/mL (≈ 7.32 µM) and the MIC (Candida albicans [17]) was 6.25 µg/mL (≈ 14.7 µM).

`Cc1cc2c(c(=O)o1)C(c1ccccc1)c1c(Nc3ccc(Cl)cc3)ncnc1O2` (stereo not drawn) showed an MIC (Staphylococcus aureus [18]) of 15.6 µg/mL (≈ 37.3 µM).

Molecule `COC(=O)C1=C(N)Oc2[nH]c(=S)[nH]c(=O)c2C1c1ccccc1` (stereo not drawn) has a zone of inhibition at 1000 µg/mL (Staphylococcus aureus [1]) of 12 mm, a zone of inhibition at 1000 µg/mL (Aspergillus niger [2]) of 12 mm and a zone of inhibition at 1000 µg/mL (Pseudomonas aeruginosa [3]) of 19 mm. It also gave a zone of inhibition at 1000 µg/mL (Klebsiella pneumoniae [5]) of 21 mm, a zone of inhibition at 1000 µg/mL (Bacillus cereus) of 18 mm and a zone of inhibition at 1000 µg/mL (Escherichia coli [6]) of 17 mm.

`CCc1cc(=O)oc2[nH]c(=S)[nH]c(=O)c12` was tested, and the EC50 [11] was 51 nM and the EC50 [19] was 220 nM.

Molecule `Cc1cc2c(c(=O)o1)C(c1ccc(F)cc1)c1c(Nc3ccc([N+](=O)[O-])cc3)ncnc1O2` (stereo not drawn) has an MIC (Staphylococcus aureus [20]) of 7.8 µg/mL (≈ 17.5 µM) and an MIC (Staphylococcus aureus [18]) of 15.6 µg/mL (≈ 34.9 µM).

With `CCO/C=N/C1=C(C#N)C(c2cc(OC)ccc2OC)c2c(n(C)c(=O)n(C)c2=O)O1` (stereo not drawn) the MIC (Klebsiella pneumoniae [12]) was 6.25 µg/mL (≈ 14.7 µM), the MIC (Staphylococcus aureus [13]) was 6.25 µg/mL (≈ 14.7 µM) and the MIC (Escherichia coli [14]) was 6.25 µg/mL (≈ 14.7 µM). For the same molecule, the MIC (Pseudomonas aeruginosa [15]) was 6.25 µg/mL (≈ 14.7 µM), the MIC (Aspergillus flavus [16]) was 3.12 µg/mL (≈ 7.32 µM) and the MIC (Candida albicans [17]) was 3.12 µg/mL (≈ 7.32 µM).

`C=C[C@H]1CN2CC[C@H]1C[C@H]2[C@H](O)c1ccnc2ccc(OC)cc12` [QUININE] showed an IC50 (Plasmodium falciparum) of 0.268 µg/mL (≈ 0.826 µM).

In the case of `COC(=O)C1=C(N)Oc2[nH]c(=S)[nH]c(=O)c2C1c1cccc(Cl)c1` (stereo not drawn), the zone of inhibition at 1000 µg/mL (Staphylococcus aureus [1]) is reported as 10 mm, the zone of inhibition at 1000 µg/mL (Aspergillus niger [2]) is reported as 12 mm and the zone of inhibition at 1000 µg/mL (Pseudomonas aeruginosa [3]) is reported as 9 mm. It also gave a zone of inhibition at 1000 µg/mL (Klebsiella pneumoniae [5]) of 11 mm, a zone of inhibition at 1000 µg/mL (Bacillus cereus) of 12 mm and a zone of inhibition at 1000 µg/mL (Escherichia coli [6]) of 8 mm.

`CCC1C(C#N)=C(N)Oc2[nH]c(=O)[nH]c(=O)c21` (stereo not drawn) showed an MIC (Aspergillus flavus [21]) of 150 µg/mL (≈ 640 µM), an MIC (Aspergillus niger [22]) of 162 µg/mL (≈ 694 µM) and an MIC (Candida albicans [23]) of 125 µg/mL (≈ 534 µM).

`OC(Cn1cncn1)(Cn1cncn1)c1ccc(F)cc1F` [FLUCONAZOLE] was tested, and the MIC (Aspergillus flavus [16]) was 1.56 µg/mL (≈ 5.09 µM) and the MIC (Candida albicans [17]) was 1.56 µg/mL (≈ 5.09 µM).

Work on `CCOC(=O)C1=C(C)Oc2nc(C)n(Cc3cn(-c4ccc([N+](=O)[O-])cc4)nn3)c(=O)c2C1c1cccs1` (stereo not drawn) yielded an IC50 (A549) of 1850 nM.
